Test results published in US20200214324A1, “Masking Bitter Flavors” (Board of Supervisors of Louisiana State University and …, priority 2009, published 2020).
Entries after “also recorded” stand apart in the source; their conditions may differ.

Key:
Assay type in all cases: in vivo
[1] = tasting of lima beans with mogroside in oil; conditions: plain + 100 ppm mogroside in oil (plain: beany)
Source text: (§1) Additional examples of the use of Mogroside V to alter the flavors of various consumables, and the experimental results obtained, are summarized in Table I: […]

[2] = tasting of soy milk with mogroside; conditions: plain + 200 ppm mogroside (plain: beany)
Source text: as §1

[3] = tasting of Hominex amino acid beverage with mogroside; conditions: 9.3 g Hominex/100 ml water + 100 ppm mogroside (plain: bitter, chalky, floury)
[4] = tasting of acai products with mogroside
Source text: Acai berries have a bitter off-flavor, which has limited the use of acai as a natural anti-oxidant. Prior methods for minimizing the bitterness of acai have included diluting the juice, adding sugar, or mixing acai with other, sweeter berries. […] The flat, tannic notes of acai were masked, and the puree flavor changed to a semi-sweet berry flavor with large, juicy top notes. The preferred concentration range was ˜200 to ˜500 ppm mogroside. […] Possible uses include any products that contain acai berry ingredients, including for example raw berries, purees, powders, flavorings, juices, ice cream (with or without glycerin), fruit fillings, smoothies, yogurts, teas, coffee, beer, salad dressing, marinades, candies, wines, liquors, other alcoholic beverages, and the like.
as §1

[5] = tasting of Powerade sports drink with KCl and mogroside
Source text: as §1

Substance: mogroside
- flavor [1]: semi-sweet; no; also recorded: beaniness
- flavor [2]: decreased beany flavor
- flavor [3]: less so, but still floury
- flavor ([4]; Acai puree 12% Brix, plain + 500 ppm mogroside (plain: tannic)): berry-semi-sweet/fruity
- flavor ([4]; Acai, 100 ppm mogroside (control: bitter, tannic)): bland, slight tannic
- flavor ([4]; Acai, 200 ppm mogroside): fruity, berry semi-sweet
- flavor ([4]; Acai, 300 ppm mogroside): tannic, little flavor at all
- flavor ([4]; Acai, 400 ppm mogroside): jammy, slight tannic
- flavor ([4]; Acai, 500 ppm mogroside): jammy, no tannin
- flavor ([4]; Acai, 600 ppm mogroside): jammy, sweet after taste;; also recorded: high intensity flavor
- flavor ([4]; Acai, 700 ppm mogroside): sweet
- flavor ([4]; Acai, 800 ppm mogroside): too sweet
- flavor ([4]; acai products, 800 ppm mogroside): strong, high-intensity sweet flavor
- effect on bitterness and off-flavor of acai ([4]; mogroside added to acai berry puree): masked the bitterness and off-flavor notes
- flavor ([5]; plain + 2% KCl + mogroside (without mogroside: bitter)): salty
- flavor ([5]; plain + 3% KCl + mogroside (without mogroside: bitter)): slightly bitter, salty
